PMC8285539, “Tetrasubstituted imidazoles as incognito Toll-like receptor 8 a(nta)gonists” (Nature Communications, 2021)

Biological target: T1, TLR8 (Homo sapiens, UniProt Q9NR97)
T1 sequence (Q9NR97 27-827): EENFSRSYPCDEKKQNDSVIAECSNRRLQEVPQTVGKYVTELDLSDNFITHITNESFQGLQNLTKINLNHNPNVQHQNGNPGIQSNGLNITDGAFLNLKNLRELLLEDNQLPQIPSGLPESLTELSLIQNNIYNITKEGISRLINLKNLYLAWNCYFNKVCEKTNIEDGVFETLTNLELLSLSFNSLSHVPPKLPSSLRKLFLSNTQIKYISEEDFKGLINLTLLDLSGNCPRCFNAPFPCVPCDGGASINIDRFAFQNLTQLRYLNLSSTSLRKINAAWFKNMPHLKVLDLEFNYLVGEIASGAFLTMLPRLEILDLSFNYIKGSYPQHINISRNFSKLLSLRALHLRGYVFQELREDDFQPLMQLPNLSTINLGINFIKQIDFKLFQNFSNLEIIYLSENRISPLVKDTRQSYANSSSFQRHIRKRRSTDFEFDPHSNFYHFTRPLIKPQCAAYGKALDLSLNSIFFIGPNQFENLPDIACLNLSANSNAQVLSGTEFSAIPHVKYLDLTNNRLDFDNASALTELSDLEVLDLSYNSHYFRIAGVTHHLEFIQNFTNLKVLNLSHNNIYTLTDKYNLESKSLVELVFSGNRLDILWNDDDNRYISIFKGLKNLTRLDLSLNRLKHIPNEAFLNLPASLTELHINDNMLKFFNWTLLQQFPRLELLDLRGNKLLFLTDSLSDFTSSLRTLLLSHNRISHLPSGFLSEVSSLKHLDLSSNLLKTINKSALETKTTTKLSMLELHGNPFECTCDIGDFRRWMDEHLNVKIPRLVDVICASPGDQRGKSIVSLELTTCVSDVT
Assay: ITC
Format: binding

Kd: 12 µM
Compound: O=c1ccn([C@@H]2O[C@H](CO)[C@@H](O)[C@H]2O)c(=O)[nH]1 [uridine]
